The values that follow come from patent US20160244453A1, “TREATMENT OF VIRAL AND INFECTIOUS DISEASES USING AN INHIBITOR OF CBP/CATENIN” (PRISM PHARMA CO., LTD., priority 2013, published 2016).

Format in all cases: cell-based
One test deals with LC3B. Nature of the test: Autophagy induction in macrophages, LC3B immunoblotting. An excerpt:
Microtubule-associated protein 1A/1B-light chain 3 (LC3) is a soluble protein that is distributed ubiquitously in mammalian tissues and cultured cells (reviewed in Methods Mol. Biol. 445, 77-88 (2008). During autophagy, autophagosomes engulf cytoplasmic components, including cytosolic proteins and organelles. Concomitantly, a cytosolic form of LC3 (LC3-I) is conjugated to phosphatidylethanolamine to form LC3-phosphatidylethanolamine conjugate (LC3-II), which is recruited to autophagosomal membranes. Autophagosomes fuse with lysosomes to form autolysosomes, and intra-autophagosomal components are degraded by lysosomal hydrolases. At the same time, LC3-II in autolysosomal lumen is degraded. Thus, lysosomal turnover of the autophagosomal marker LC3-II reflects starvation-induced autophagic activity, and detecting LC3 by immunoblotting or immunofluorescence is an indicator of autophagy and autophagy-related processes, including autophagic cell death.
(§1) For these studies, macrophages were exposed to rapamycin 100 nM (a known inducer of autophagic flux), proteins were extracted and subjected to immunoblotting.
During autophagy, LC3B (LC3B-I) forms LC3B-phosphatidylethanolamine conjugate (LC3B-II), which is recruited to autophagosomal membranes. When there is autophagic flux there is lipidation of LC3B-I that results in conversion of LC3B-II. Thus, during autophagic flux the relative quantity of LC3B-II is increased compared to LC3B-I.
Background: Immunoblotting shows a protein as a band on a membrane.

The test system of test [1] is Sequestome 1/p62 (SQSTM1). In words: Autophagic flux in macrophages, SQSTM1/p62 immunoblotting. Conditions: Compound A 1 and 2 μM, rapamycin 100 nM, immunoblot. The method, then:
as §1
In addition, the inventors looked at another marker of autophagic flux (sequestosome 1, also called SQSTIM1 or p62). During active autophagy, SQSTIM1 is degraded (decreased).

The test system of a further test is HIV. Nature of the test: HIV replication in macrophages, HIV p24 antigen released into culture supernatants. Conditions: macrophages pretreated 24 hours; infection monitored 10 days; concentrations 100 pM to 2 μM. On the procedure:
For these experiments, peripheral blood mononuclear cells (PBMCs) were isolated from HIV seronegative donors and differentiated into macrophages for 7-10 days using methods previously described (J Biol Chem 286: 18890-18902 (2011); PLoS Pathogens 8(5):e1002689 pp 1-13 (2012); PLoS Pathogens 8(11):e1003017 (2012)). The macrophages were pretreated for 24 hours with Compound C, which is the β-catenin inhibitor (6S,9S,9aS)-N-benzyl-6-(4-hydroxybenzyl)-2,9-dimethyl-4,7-dioxo-8-(quinolin-8-ylmethyl)octahydro-1H-pyrazino[2,1-c][1,2,4]triazine-1-carboxamide. Macrophages were treated with Compound C at increasing concentrations and productive infection was monitored for 10 days by detection of HIV p24 antigen released into the culture supernatants.

The next test relates to CD4 Tscm. In words: In vitro culture assay of sorted CD4 Tscm, phenotype by flow cytometry. Conditions: 10 d incubation with rhIL-15; compared to control experiments. The method, then:
(§2) PBMC were stained with monoclonal antibodies directed against CD4, CD3, CD45RA, CCR7, CD62L, CD122, CD95, according to standard protocols. After 20 minutes, CCR7+ CD45RA+ naïve CD4 T cells, CCR7+ CD45RA− central-memory CD4 T cells (CD4 Tcm), CCR7− CD45RA− CD4 T cells, CCR7− CD45RA+ terminally-differentiated CD4 T cells (CD4 Ttd) and CCR7+ CD45RA+ CD62L+ CD95+ CD122+ T memory stem cell CD4 T cells (CD4 Tscm) were live sorted in a specifically designated biosafety cabinet (Baker Hood), using a FACS Aria cell sorter (BD Biosciences) at 70 pounds per square inch. For phenotypic characterization, cells were additionally stained with CCR5 or CXCR4 antibodies, or Annexin V, and acquired on a LSRII flow cytometer (BD Biosciences). Data were analyzed using FlowJo software (Treestar).
(§3) Selected CD4 T cell subsets were isolated by cell sorting, labeled cells with 2 μM CFSE for 7 min at 37° C., and incubated with rhIL-15 (25 ng/ml; Peprotech) for 10 d in the presence or absence of Compound C, (6S,9S,9aS)-N-benzyl-6-(4-hydroxybenzyl)-2,9-dimethyl-4,7-dioxo-8-(quinolin-8-ylmethyl)octahydro-1H-pyrazino[2,1-c][1,2,4]triazine-1-carboxamide (Prism Biolabs). Afterwards, cells were harvested and phenotypically characterized by flow cytometry. […]

Another test relates to CD4 Tcm. Nature of the test: In vitro culture assay of sorted CD4 Tcm, phenotype by flow cytometry. Conditions: 10 d incubation with rhIL-15; compared to control experiments. The method, then:
as §2, §3
On the technique in general: In flow cytometry, cells or beads pass a laser one at a time.

Regarding `C[C@H]1[C@H]2N(C(=O)CN(C)N2C(=O)NCc2ccccc2)[C@@H](Cc2ccc(OP(=O)(O)O)cc2)C(=O)N1Cc1cccc2cccnc12` [Compound A, 4-(((6S,9S,9aS)-1-(benzylcarbamoyl)-2,9-dimethyl-4,7-dioxo-8-(quinolin-8-ylmethyl)octahydro-1H-pyrazino[2,1-c][1,2,4]triazin-6-yl)methyl)phenyl dihydrogen phosphate], the induction of autophagy entry in the test with LC3B (1 and 2 μM) is “induces autophagy”. Further, the “levels of LC3B II and LC3B I relative to negative control” value with LC3B (Compound A 2 μM, rapamycin 100 nM, immunoblot) was “greatly reduced”. The “amount of LC3B II and LC3B I relative to negative control” value with LC3B (Compound A 1 and 2 μM, rapamycin 100 nM, immunoblot) was “increased amount of LC3B II and decreased amount of LC3B I”. In addition, in test [1], the “SQSTM1 (p62) levels relative to negative control” value is listed as “reduced”.
As for `C[C@H]1[C@H]2N(C(=O)CN(C)N2C(=O)NCc2ccccc2)[C@@H](Cc2ccc(O)cc2)C(=O)N1Cc1cccc2cccnc12` [Compound C, (6S,9S,9aS)-N-benzyl-6-(4-hydroxybenzyl)-2,9-dimethyl-4,7-dioxo-8-(quinolin-8-ylmethyl)octahydro-1H-pyrazino[2,1-c][1,2,4]triazine-1-carboxamide], in the test with HIV, the “HIV replication (HIV p24 antigen)” value is “inhibits HIV in a dose dependent manner”. In addition, the “differentiation of Tscm into more mature CCR7− CD62L− CD4 T cell populations” value in the test on CD4 Tscm is given as “substantially facilitated differentiation”. In addition, the “differentiation of Tcm into more mature CCR7− CD62L− CD4 T cell populations” value with CD4 Tcm was “to a lesser extent”.
